# US11618747B2, “LXR modulators with bicyclic core moiety” (OrsoBio, Inc., priority 2018, dated 2023)
# Like-named read-outs stand apart in the source and are kept apart here.
# Key:
# [1] = molecular target: T1, LXRβ ligand-binding domain (Homo sapiens, UniProt P55055, DUP175-175); assay: TR-FRETβ activity assay (NCoA3 coactivator peptide recruitment); type: biochemical
# T1 construct: amino acids 156-461; NP009052; made in house; host or cells: E. coli
# T1 sequence (P55055 with tags, fused parts or gaps DUP175-175 limits assumed): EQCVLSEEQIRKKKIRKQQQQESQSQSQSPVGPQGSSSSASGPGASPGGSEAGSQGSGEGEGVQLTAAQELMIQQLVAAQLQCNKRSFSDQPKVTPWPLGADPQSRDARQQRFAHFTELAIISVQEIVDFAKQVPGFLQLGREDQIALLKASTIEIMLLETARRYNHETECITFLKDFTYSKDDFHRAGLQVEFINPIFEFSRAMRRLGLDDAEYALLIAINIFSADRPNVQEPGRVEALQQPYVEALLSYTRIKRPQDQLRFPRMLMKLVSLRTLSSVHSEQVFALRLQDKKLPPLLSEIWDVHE
# Procedure, shortened: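 Inverse agonism assessed by loss of coactivator recruitment, read as TR-FRET 665/615 nm after 1 h equilibration at 4 °C, in triplicate. Ten-point titration from 50 μM to 0.002 μM against LXRβ LBD (76 nM, GST fusion) prestimulated with 1 μM 24(S)-25-epoxycholesterol, with 400 nM NCoA3 peptide, pH 6.8. Sulfonyl acetic acids kept as 20 mM DMSO stocks with 100 mM TFA.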
# full length (FL) LXRα = molecular target: T2, full length (FL) LXRα (Homo sapiens, UniProt Q13133); assay: LXR Gal4 reporter transient transfection assay (FL-M2H Gal4α); type: cell-based; settings: HEK293 cells
# T2 construct: the full length (FL) proteins of LXRα (amino acids 1-447); NP005684; expressed in transfected cells; host or cells: HEK293
# T2 sequence (Q13133 1-447): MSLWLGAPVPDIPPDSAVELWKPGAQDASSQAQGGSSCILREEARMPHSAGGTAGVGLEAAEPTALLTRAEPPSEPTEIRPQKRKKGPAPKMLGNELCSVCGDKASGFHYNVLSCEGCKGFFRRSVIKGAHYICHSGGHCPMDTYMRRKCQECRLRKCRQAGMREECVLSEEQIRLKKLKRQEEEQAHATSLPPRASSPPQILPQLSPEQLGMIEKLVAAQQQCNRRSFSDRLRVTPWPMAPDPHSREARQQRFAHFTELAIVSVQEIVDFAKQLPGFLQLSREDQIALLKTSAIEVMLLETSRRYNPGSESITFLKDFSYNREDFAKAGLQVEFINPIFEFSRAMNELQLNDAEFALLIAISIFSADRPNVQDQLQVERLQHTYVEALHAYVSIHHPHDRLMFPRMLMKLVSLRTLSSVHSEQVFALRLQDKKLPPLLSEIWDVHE
# Method: The tested compounds were usually dissolved, tested and stored as 20 mM stock solutions in DMSO. Since sulfonyl acetic acid derivatives tend to decarboxylate under these conditions, these stock solutions were prepared, tested and stored as 20 mM DMSO stock solutions containing 100 mM trifluoroacetic Acid (5 equivalents). Sulfonyl acetic acid derivatives are shelf stable as solid at rt for long time as reported by Griesbrecht et al. (Synlett 2010:374) or Faucher et al. (J. Med. Chem. 2004; 47:18).
# LXR Gal4 Reporter Transient Transfection Assays
# LXRα and LXRβ activity status was determined via detection of interaction with coactivator and corepressor proteins in mammalian two-hybrid experiments (M2H). For this, via transient transfection the full length (FL) proteins of LXRα (amino acids 1-447; NP005684; SEQ ID NO:1) or LXRβ-(amino acids 1-461; NP009052; SEQ ID NO:2) or the ligand-binding domains (LBD) of LXRα (amino acids 155-447 SEQ ID NO:3) or LXRβ (amino acids 156-461; SEQ ID NO:4) were expressed from pCMV-AD (Stratagene) as fusions to the transcriptional activation domain of NFkB. As cofactors, domains of either the steroid receptor coactivator 1 (SRC1; amino acids 552-887; SEQ ID NO:5) or of the corepressor NCoR (amino acids 1906-2312; NP006302; SEQ ID NO:6) were expressed as fusions to the DNA binding domain of the yeast transcription factor GAL4 (from pCMV-BD; Stratagene). Interaction was monitored via activation of a coexpressed Firefly Luciferase Reporter gene under control of a promoter containing repetitive GAL4 response elements (vector pFRLuc; Stratagene). Transfection efficiency was controlled via cotransfection of constitutively active pRL-CMV Renila reniformis luciferase reporter (Promega). HEK293 cells were grown in minimum essential medium (MEM) with 2 mM L-glutamine and Earle's balanced salt solution supplemented with 8.3% fetal bovine serum, 0.1 mM non-essential amino acids, 1 mM sodium pyruvate, at 37° C. in 5% CO2. 3.5×10^4 cells/well were plated in 96-well cell culture plates in growth medium supplemented with 8.3% fetal bovine serum for 16-20 h to ˜90% confluency. For transfection, medium was taken off and LXR and cofactor expressing plasmids as well as the reporter plasmids are added in 30 μL OPTIMEM/well including polyethylene-imine (PEI) as vehicle. Typical amounts of plasmids transfected/well: pCMV-AD-LXR (5 ng), pCMV-BD-cofactor (5 ng), pFR-Luc (100 ng), pRL-CMV (0.5 ng). Compound stocks were prepared in DMSO, prediluted in MEM to a total volume of 120 μL, and added 4 h after addition of the transfection mixture (final vehicle concentration not exceeding 0.2%). Cells were incubated for additional 16 h, lysed for 10 min in 1× Passive Lysis Buffer (Promega) and Firefly and Renilla luciferase activities were measured sequentially in the same cell extract using buffers containing D-luciferine and coelenterazine, respectively. Measurements of luminescence were done in a BMG-luminometer.
# full length (FL) LXRβ = molecular target: T3, full length (FL) LXRβ (Homo sapiens, UniProt P55055, DUP175-175); assay: LXR Gal4 reporter transient transfection assay (FL-M2H Gal4β); type: cell-based; settings: HEK293 cells
# T3 construct: the full length (FL) proteins of LXRα (amino acids 1-447); NP005684; NP009052; expressed in transfected cells; host or cells: HEK293
# T3 sequence (P55055 with tags, fused parts or gaps DUP175-175): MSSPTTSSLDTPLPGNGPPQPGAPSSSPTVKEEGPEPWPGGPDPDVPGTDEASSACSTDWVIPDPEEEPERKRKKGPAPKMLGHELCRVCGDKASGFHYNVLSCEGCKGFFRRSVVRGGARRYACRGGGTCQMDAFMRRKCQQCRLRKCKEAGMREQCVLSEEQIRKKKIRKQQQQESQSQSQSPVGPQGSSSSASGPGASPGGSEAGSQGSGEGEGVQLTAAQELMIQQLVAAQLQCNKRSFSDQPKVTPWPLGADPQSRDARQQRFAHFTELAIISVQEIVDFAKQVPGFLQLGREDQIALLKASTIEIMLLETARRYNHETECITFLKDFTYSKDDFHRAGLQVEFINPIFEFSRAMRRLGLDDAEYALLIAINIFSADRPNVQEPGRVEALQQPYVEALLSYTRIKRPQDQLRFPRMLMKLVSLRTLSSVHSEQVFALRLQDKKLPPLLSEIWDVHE
# Procedure, shortened: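 Mammalian two-hybrid in HEK293 cells transiently transfected with NFkB-AD-fused FL or LBD LXR plus GAL4-BD-fused SRC1 or NCoR cofactor domains and GAL4-responsive firefly luciferase reporter, Renilla-normalized. Compound added 4 h post-transfection (≤0.2% DMSO), 16 h incubation, luminescence read.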
# [2] = 1 μM 24(S)-25-epoxycholesterol as prestimulating agonist
# [3] = 1 μM 24(S)-25-epoxycholesterol as prestimulating agonist, read-out: FRETβ potency
# [4] = TR-FRET, 1 μM 24(S)-25-epoxycholesterol prestimulation, read-out: FRETβ (EC50 range)
# [5] = full length LXRβ, read-out: FL-M2H Gal4β (EC50 range)
# [6] = full length LXRα, read-out: FL-M2H Gal4α (EC50 range)
Structure (SMILES),"EC50 [1, 4]",EC50 (full length (FL) LXRβ; [5]),EC50 (full length (FL) LXRα; [6]),also measured
"N#Cc1cccc(-c2c(-c3cccc(-c4ccc(C(=O)O)cc4Cl)c3)n(S(=O)(=O)c3ccc(C(F)F)cc3)c3ccc(F)cc23)c1 [C11/48, reference compound]",< 100 nM,< 100 nM,–,"FRETβ efficacy (value in brackets) [1, 2]: −96%; EC50 [1, 3]: 49 nM; FL-M2H Gal4α efficacy (value in brackets) (full length (FL) LXRα): 118%; EC50 (full length (FL) LXRα; read-out: FL-M2H Gal4α potency): 62 nM; FL-M2H Gal4β efficacy (value in brackets) (full length (FL) LXRβ): 123%; EC50 (full length (FL) LXRβ; read-out: FL-M2H Gal4β potency): 32 nM"
O=C(O)c1ccc(-c2cccc(-c3c(-c4cccc5nncn45)c4cc(F)ccc4n3S(=O)(=O)c3ccc(C(F)F)cc3)c2)c(Cl)c1 [11/43],100 to 1000 nM,100 to 1000 nM,100 to 1000 nM,–
Cc1ccc(S(=O)(=O)n2c(-c3cccc(-c4ccc(C(=O)O)cc4Cl)c3)c(-c3ccc(C)cc3C#N)c3cc(F)ccc32)cc1 [11/4],100 to 1000 nM,< 100 nM,< 100 nM,–
CC(O)(C(=O)O)c1cc(F)c(-c2cccc(-c3c(-c4c(C#N)cccc4C#N)c4cc(F)ccc4n3S(=O)(=O)c3ccc(C(F)F)cc3)c2)c(F)c1 (stereo not drawn) [3/72],< 100 nM,< 100 nM,< 100 nM,–
COC(=O)c1ccc(-c2cccc(-c3c(-c4c(C)cccc4C#N)c4cc(F)ccc4n3S(=O)(=O)c3ccc(C(F)F)cc3)c2)c(Cl)c1 [1/122],100 to 1000 nM,< 100 nM,< 100 nM,–
"Cc1ccc(S(=O)(=O)n2c(-c3cccc(N4CC(C(=O)O)C4)c3)c(-c3csc(C#N)c3)c3cc(F)ccc32)cc1 [C3/29, reference compound]",–,–,–,"FRETβ efficacy (value in brackets) [1, 2]: −102%; EC50 [1, 3]: 4230 nM; FL-M2H Gal4α potency (full length (FL) LXRα): inactive; FL-M2H Gal4β potency (full length (FL) LXRβ): inactive"
N#Cc1sccc1-c1c(-c2cccc(-c3ccc(C(=O)O)cc3Cl)c2)n(S(=O)(=O)c2ccc(Cl)cc2)c2ccc(F)cc12 [3/57],100 to 1000 nM,< 100 nM,< 100 nM,–
COCc1sccc1-c1c(-c2cccc(N3CC(C(=O)O)C3)c2)n(S(=O)(=O)c2ccc(C)cc2)c2ccc(F)cc12 [3/6],1000 to 10000 nM,100 to 1000 nM,100 to 1000 nM,–
N#Cc1sccc1-c1c(-c2cccc(N3CC(C(=O)O)C3)c2)n(S(=O)(=O)c2ccc(C(F)F)cc2)c2ccc(F)cc12 [3/35],100 to 1000 nM,< 100 nM,100 to 1000 nM,–
Cc1ccc(S(=O)(=O)n2c(-c3cccc(N4CC[C@@H](C(=O)O)C[C@H]4C)c3)c(-c3ccsc3C#N)c3cc(F)ccc32)cc1 [5/9],100 to 1000 nM,< 100 nM,100 to 1000 nM,–
N#Cc1ccccc1-c1c(-c2cccc(-c3ccc(C(=O)O)cc3Cl)c2)n(S(=O)(=O)c2ccc(C(F)F)cc2)c2cccnc12 [8/7],100 to 1000 nM,< 100 nM,100 to 1000 nM,–
Cc1ccc(S(=O)(=O)n2c(-c3cccc(-c4ccc(CN(C)C)cc4)c3)c(-c3ccsc3C#N)c3cc(F)ccc32)cc1 [8/1],100 to 1000 nM,< 100 nM,< 100 nM,–
COc1cccnc1-c1c(-c2cccc(-c3ccc(C(=O)O)cc3Cl)c2)n(S(=O)(=O)c2ccc(C(F)F)cc2)c2ccc(F)cc12 [11/40],100 to 1000 nM,< 100 nM,< 100 nM,–
N#Cc1sccc1-c1c(-c2cccc(-c3ccc(C(=O)O)cc3Cl)c2)n(S(=O)(=O)c2ccc(F)cc2)c2ccc(F)cc12 [11/18],100 to 1000 nM,< 100 nM,< 100 nM,–
Cc1ccc(S(=O)(=O)n2c(-c3cccc(N4CC(C(=O)NC(C)(C)C(=O)O)C4)c3)c(-c3ccsc3C#N)c3cc(F)ccc32)cc1 [3/52],100 to 1000 nM,100 to 1000 nM,100 to 1000 nM,–
N#Cc1ccc(S(=O)(=O)n2c(-c3cccc(-c4ccc(C(=O)O)cc4Cl)c3)c(-c3ccsc3C#N)c3cc(F)ccc32)cc1 [11/20],100 to 1000 nM,< 100 nM,< 100 nM,–
O=C(O)c1ccc(-c2cccc(-c3c(-c4ccsc4C(F)(F)F)c4cc(F)ccc4n3S(=O)(=O)c3ccc(C(F)F)cc3)c2)c(Cl)c1 [11/22],< 100 nM,< 100 nM,< 100 nM,–
N#Cc1cncc(C#N)c1-c1c(-c2cccc(-c3ccc(C(=O)O)cc3Cl)c2)n(S(=O)(=O)c2ccc(C(F)F)cc2)c2ccc(F)cc12 [11/67],100 to 1000 nM,< 100 nM,< 100 nM,–
Cc1ccc(S(=O)(=O)n2c(-c3cccc(-c4ccc(C(=O)O)nc4C)c3)c(-c3ccsc3C#N)c3cc(F)ccc32)cc1 [36/1],100 to 1000 nM,< 100 nM,< 100 nM,–
N#Cc1sccc1-c1c(-c2cccc(-c3ccc(C(=O)O)cc3Cl)c2)n(S(=O)(=O)c2ccc(C(F)F)nc2)c2ccc(F)cc12 [11/57],< 100 nM,< 100 nM,< 100 nM,–
Cc1ccc(S(=O)(=O)n2c(-c3cccc(C4CC(C(=O)O)C4)c3)c(-c3ccsc3C#N)c3cc(F)ccc32)cc1 (stereo not drawn) [3/39],100 to 1000 nM,< 100 nM,100 to 1000 nM,–
Cc1ccc(S(=O)(=O)n2c(-c3cccc(N4CC(C(=O)O)C4)c3)c(-c3ccsc3CCO)c3cc(F)ccc32)cc1 [3/27],1000 to 10000 nM,100 to 1000 nM,100 to 1000 nM,–
